Laboratory results taken from paper PMC12678337, “EAR-20 peptide, a novel NMDA receptor positive allosteric modulator” (Frontiers in Pharmacology, 2025).
Where “and” joins values, the source holds several entries; their conditions need not be identical. Equal values may be shown once. No end group written: not given here.

Assays:
GluN1-GluN2B [1] = biological target: T1, GluN1-GluN2B (Rattus norvegicus, UniProt P35439+Q00960); assay type: cell-based
T1 construct: GFP (N); expressed in transfected cells; host or cells: HEK-293T
T1 sequence (Q00960 27-1482, other chains not shown): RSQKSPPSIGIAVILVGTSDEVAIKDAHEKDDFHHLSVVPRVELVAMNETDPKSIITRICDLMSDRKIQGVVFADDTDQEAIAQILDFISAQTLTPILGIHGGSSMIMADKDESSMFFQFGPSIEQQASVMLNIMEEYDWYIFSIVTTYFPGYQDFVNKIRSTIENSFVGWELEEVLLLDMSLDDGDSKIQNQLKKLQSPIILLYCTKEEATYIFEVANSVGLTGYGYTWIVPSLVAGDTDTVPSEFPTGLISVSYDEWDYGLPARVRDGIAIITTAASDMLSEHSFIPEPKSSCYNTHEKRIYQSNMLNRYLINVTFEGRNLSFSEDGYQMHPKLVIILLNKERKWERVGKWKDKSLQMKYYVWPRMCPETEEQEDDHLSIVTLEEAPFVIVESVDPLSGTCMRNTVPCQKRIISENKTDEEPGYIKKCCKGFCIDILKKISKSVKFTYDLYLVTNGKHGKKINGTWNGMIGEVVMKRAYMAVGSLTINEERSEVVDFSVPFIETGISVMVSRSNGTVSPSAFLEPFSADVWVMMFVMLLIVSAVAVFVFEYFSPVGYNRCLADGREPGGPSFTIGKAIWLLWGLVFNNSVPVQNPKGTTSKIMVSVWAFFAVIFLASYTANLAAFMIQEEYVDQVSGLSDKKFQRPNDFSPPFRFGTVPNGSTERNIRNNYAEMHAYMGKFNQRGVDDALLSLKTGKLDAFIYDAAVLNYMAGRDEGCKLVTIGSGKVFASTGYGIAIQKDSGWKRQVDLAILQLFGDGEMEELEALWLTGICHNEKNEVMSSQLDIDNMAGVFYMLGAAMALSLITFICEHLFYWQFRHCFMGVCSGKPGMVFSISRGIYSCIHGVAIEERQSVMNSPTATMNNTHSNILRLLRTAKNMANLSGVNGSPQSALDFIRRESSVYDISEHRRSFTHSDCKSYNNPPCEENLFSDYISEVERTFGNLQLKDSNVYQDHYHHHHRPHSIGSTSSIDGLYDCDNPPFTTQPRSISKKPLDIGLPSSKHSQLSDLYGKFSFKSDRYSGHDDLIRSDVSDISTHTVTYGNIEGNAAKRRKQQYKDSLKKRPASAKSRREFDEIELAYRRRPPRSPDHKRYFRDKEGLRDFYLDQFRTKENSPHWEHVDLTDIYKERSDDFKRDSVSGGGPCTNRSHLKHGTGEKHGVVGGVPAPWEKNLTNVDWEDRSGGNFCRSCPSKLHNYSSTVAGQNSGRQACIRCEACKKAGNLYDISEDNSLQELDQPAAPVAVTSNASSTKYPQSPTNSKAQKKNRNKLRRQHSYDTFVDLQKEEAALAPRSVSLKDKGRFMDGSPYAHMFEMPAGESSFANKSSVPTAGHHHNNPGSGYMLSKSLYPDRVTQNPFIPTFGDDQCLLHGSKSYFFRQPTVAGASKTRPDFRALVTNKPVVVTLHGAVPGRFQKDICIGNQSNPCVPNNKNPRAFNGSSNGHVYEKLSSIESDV

GluN1-GluN2A [2] = biological target: T2, GluN1-GluN2A (Rattus norvegicus, UniProt P35439+Q00959); assay type: cell-based
T2 construct: GFP (N); expressed in transfected cells; host or cells: HEK-293T (single-channel: HEK293)
T2 sequence (Q00959 23-1464, other chains not shown): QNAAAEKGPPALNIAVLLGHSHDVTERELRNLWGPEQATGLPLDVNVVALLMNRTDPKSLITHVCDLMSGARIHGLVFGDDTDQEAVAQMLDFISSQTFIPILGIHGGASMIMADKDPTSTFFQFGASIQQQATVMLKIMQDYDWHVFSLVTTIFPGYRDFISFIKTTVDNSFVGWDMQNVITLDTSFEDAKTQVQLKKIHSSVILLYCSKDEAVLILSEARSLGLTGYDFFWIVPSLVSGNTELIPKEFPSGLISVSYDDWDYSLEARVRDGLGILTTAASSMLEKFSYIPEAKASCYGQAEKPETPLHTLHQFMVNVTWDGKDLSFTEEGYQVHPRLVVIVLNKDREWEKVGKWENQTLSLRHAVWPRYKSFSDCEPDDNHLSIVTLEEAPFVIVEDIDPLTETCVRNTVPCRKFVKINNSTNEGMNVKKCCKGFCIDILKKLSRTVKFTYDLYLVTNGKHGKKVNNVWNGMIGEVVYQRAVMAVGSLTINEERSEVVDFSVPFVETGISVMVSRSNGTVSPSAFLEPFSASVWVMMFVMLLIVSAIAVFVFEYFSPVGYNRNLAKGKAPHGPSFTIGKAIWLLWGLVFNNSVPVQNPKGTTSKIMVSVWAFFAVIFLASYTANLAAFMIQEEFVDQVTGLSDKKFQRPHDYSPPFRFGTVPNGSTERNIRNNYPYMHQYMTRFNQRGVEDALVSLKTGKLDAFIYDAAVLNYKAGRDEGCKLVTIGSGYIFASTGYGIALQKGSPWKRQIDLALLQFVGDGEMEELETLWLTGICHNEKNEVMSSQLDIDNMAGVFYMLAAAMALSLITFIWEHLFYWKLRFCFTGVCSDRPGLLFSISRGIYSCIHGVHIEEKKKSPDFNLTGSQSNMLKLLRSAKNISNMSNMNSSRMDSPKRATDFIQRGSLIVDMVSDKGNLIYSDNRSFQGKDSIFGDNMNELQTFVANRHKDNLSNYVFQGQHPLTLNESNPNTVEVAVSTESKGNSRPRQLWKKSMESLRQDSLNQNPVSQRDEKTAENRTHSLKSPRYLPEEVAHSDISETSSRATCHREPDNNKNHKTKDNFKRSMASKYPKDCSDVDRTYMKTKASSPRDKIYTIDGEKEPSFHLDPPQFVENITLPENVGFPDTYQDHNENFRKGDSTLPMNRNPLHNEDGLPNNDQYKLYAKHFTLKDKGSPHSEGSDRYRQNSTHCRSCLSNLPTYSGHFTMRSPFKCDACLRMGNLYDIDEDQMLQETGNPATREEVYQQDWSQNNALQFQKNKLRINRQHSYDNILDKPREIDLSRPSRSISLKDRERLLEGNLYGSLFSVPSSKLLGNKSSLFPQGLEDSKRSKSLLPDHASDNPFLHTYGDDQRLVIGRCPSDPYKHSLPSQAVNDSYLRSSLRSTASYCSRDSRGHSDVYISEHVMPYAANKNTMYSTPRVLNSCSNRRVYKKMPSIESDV

GluN1-GluN2A [3] = biological target: T2, GluN1-GluN2A; assay type: cell-based; remark: listed apart in the source
GluN1-GluN2B [4] = biological target: T1, GluN1-GluN2B; assay type: cell-based; remark: listed apart in the source
GluN1-GluN2C = biological target: T3, GluN1-GluN2C (Rattus norvegicus, UniProt P35439+Q00961); assay type: cell-based
T3 construct: HA (N); expressed in transfected cells; host or cells: HEK-293T
T3 sequence (Q00961 20-1237, other chains not shown): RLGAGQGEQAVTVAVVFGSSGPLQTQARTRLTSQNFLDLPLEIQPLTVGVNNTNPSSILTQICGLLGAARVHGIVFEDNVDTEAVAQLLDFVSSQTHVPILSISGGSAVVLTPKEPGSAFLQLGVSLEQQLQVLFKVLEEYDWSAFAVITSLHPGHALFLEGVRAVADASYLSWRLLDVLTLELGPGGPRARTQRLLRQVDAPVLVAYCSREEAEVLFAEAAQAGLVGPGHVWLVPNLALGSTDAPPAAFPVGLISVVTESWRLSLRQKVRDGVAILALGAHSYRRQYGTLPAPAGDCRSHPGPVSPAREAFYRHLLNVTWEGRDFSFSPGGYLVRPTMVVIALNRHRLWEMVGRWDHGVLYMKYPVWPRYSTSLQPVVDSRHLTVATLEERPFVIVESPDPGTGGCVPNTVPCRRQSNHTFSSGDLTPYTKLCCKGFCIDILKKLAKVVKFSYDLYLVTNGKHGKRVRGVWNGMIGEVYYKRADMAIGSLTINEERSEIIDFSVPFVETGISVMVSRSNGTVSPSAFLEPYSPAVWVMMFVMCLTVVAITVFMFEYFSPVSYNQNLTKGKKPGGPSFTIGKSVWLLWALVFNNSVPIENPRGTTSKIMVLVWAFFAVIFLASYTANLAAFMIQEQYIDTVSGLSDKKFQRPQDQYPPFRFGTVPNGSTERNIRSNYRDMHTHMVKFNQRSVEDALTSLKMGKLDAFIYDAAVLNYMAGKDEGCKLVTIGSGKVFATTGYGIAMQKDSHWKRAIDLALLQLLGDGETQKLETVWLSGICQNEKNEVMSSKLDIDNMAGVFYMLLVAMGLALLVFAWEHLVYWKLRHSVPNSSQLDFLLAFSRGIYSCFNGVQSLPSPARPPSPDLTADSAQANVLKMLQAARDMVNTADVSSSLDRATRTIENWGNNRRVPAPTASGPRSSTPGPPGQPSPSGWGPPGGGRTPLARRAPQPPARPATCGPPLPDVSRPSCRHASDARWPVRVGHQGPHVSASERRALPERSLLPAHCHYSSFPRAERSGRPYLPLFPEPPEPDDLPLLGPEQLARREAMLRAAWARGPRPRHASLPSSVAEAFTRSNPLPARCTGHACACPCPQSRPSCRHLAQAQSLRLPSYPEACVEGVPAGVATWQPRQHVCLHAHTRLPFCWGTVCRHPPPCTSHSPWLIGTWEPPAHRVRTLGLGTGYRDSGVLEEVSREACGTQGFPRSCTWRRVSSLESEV

GluN1-GluN2D = biological target: T4, GluN1-GluN2D (Rattus norvegicus, UniProt P35439+Q62645); assay type: cell-based
T4 construct: HA (N); expressed in transfected cells; host or cells: HEK-293T

GluN1-GluN2A [5] = biological target: T2, GluN1-GluN2A; assay: cell-based
GluN1-GluN2B [6] = biological target: T1, GluN1-GluN2B; assay: cell-based
GluN1/GluN2A-V820I = biological target: T5, GluN1/GluN2A-V820I (Rattus norvegicus, UniProt P35439+Q00959, V820I); assay type: cell-based
T5 construct: GFP (N); expressed in transfected cells; host or cells: HEK-293T

Sequence: KLGMRSELQIDNDQDAD [EAR-20]
- maximal agonist activity relative to glutamate plus glycine (GluN1-GluN2B [1]): 12.18% ± 6.9%
- response in the presence of glutamate, % of glutamate plus glycine response (GluN1-GluN2B [1]): 38.33% ± 17.1%
- response in the presence of glycine, % of glutamate plus glycine response (GluN1-GluN2B [1]): 43.22% ± 18.1%
- agonistic activity relative to glutamate plus glycine (GluN1-GluN2A [2]): 13.31% ± 6.5%
- peak current potentiation (GluN1-GluN2A [3]): 15.68% ± 6.19% and 15.68% ± 6.16%
- steady-state current potentiation (GluN1-GluN2A [3]): 154.3% ± 19.0% and 154.3% and 153.3% ± 19.9%
- peak current potentiation (GluN1-GluN2B [4]): 102.6% ± 24.02%
- potentiation by EAR-20 (GluN1-GluN2B [4]): 136.8% ± 19.6%
- steady-state current potentiation (GluN1-GluN2B [4]): 137.9% ± 21.0% and 137.9% and 143.7% ± 26.8%
- peak current potentiation (GluN1-GluN2C): −8.04% ± 7.48%
- steady-state current potentiation (GluN1-GluN2C): 23.31% ± 7.6% and ~25%
- peak current potentiation (GluN1-GluN2D): 4.97% ± 2.63%
- steady-state current potentiation (GluN1-GluN2D): 102.45% ± 11.1%
- EC50 (GluN1-GluN2A [5]): 88.7 µM
- EC50 (GluN1-GluN2B [6]): 42.2 µM
- steady-state potentiation (GluN1/GluN2A-V820I): 146.6% ± 37.8%
